Measurements as given in US6177426A, “Morpholino-N-ethyl ester prodrugs of indole sPLA2 inhibitors” (Eli Lilly and Company, priority 2000, dated 2001).

Columns and labels:
[1] = Rat plasma pharmacokinetics study, oral bioavailability; type: in vivo, Rat (Fischer 344); conditions: compared to other ester prodrugs
Description: The bioavailability of the compound of the invention, ((3-(2-Amino-1,2-dioxoethyl)-1-((1,1'-biphenyl)-3-ylmethyl)-2-methyl-1H-indol-4-yl)oxy)acetic acid morpholino-N-ethyl ester, was determined using a Rat Study Protocol Plasma
The purpose of this assay was to evaluate and compare the oral delivery for selected sPLA2 inhibitors.
The amount of sPLA2 inhibitor was corrected for free acid equivalents.
Suspension of sPLA2 inhibitor in 10% Acacia, prepared just prior to dose administration
Dose: 10 mg/kg (of the parent acid)
Blood samples (0.8 ml) were obtained at the following times: 0.5, 1, 2, 4, 8 and 24 hours (2 rats/timepoint)
Plasma was assayed by HPLC to measure concentrations of the different sPLA2 inhibitors (measured as free acids). Cmax (maximal plasma concentrations), and AUC values were determined from the mean plasma concentration-time profiles.

[2] = target: recombinant human secreted phospholipase A2; conditions: data from U.S. Pat. No. 5,654,326, cited from earlier work
[3] = target: recombinant human secreted phospholipase A2; conditions: guinea pig lung tissue; sPLA2 10 ug/ml; data from U.S. Pat. No. 5,654,326; read-out: Tissue test secreted PLA2 Apparent KB; cited from earlier work

Cc1c(C(=O)C(N)=O)c2c(OCC(=O)OCCN3CCOCC3)cccc2n1Cc1cccc(-c2ccccc2)c1 [Compound of formula (I), ((3-(2-amino-1,2-dioxoethyl)-1-((1,1'-biphenyl)-3-ylmethyl)-2-methyl-1H-indol-4-yl)oxy)acetic acid morpholino-N-ethyl ester]
oral bioavailability compared to other esters (in words) ([1]; listed as morpholino-N-ethyl ester): unexpectedly more bioavailable than other esters

Cc1c(C(=O)C(N)=O)c2c(OCC(=O)O)cccc2n1Cc1cccc(-c2ccccc2)c1 [formula (II)]
IC50 ([2]; chromogenic assay, 3-4 tests, read-out: Inhibition of human secreted PLA2 IC50 ± mean deviation (3-4 tests)): 4.33 ± 2.31 nM | inhibiting sPLA2 (conclusion in words) ([2]; conclusion of Assay 1): highly active in inhibiting sPLA2 | Kb [3]: 57 ± 11 nM

Cc1c(C(=O)C(N)=O)c2c(OCC(=O)OCCN3CCOCC3)cccc2n1Cc1cccc(-c2ccccc2)c1 [formula (I)]
oral bioavailability compared to other esters (in words) [1]: highly bioavailable upon oral administration compared to other common ester type prodrugs
